{
  "source": "patent US10583209B2",
  "about": "“Hyperpolarized 1-13C-1,1-bis(acetoxy(methyl))-2,2′-cyclopropane as metabolic marker for MR” (BRACCO IMAGING S.P.A., priority 2013, dated 2020)",
  "key": {"[1]": {"tested_on": "Rat liver cancer cells (Morris7777)", "experiment": "In cell DNP conversion in rat liver cancer cells, co-polarized with 1-13C-pyruvate", "type": "cell-based", "details": "for AUC (arb. Units), area under the metabolic curve: 10 million cells, approx. 3.5 mM of each substrate, 37 C", "experimental": "(§1) The experiments were performed with a co-polarization of 1-^13C-1,1-Bis(acetoxy(methyl-d2))-2,2′-d4-cyclopropane and 1-^13C-pyruvic acid in equal amounts of compounds (30 μmol) resulting in a concentration of approx. 3.5 mM of each substrate in the experiments. The DNP preparation of 1-^13C-1,1-Bis(acetoxy(methyl-d2))-2,2′-d4-cyclopropane was performed as described in example 2 and the DNP preparation of 1-^13C-pyruvate was performed as described in WO 2006/011809. The two substrates were co-polarized without mixing the substrates.\nRat liver cancer cells (Morris777) were grown in RPMI+10% FBS and antibiotics. Following trypsin harvesting 10 million cells were redissolved in 500 μl phosphate buffer (PBS) and transferred to a 10 mm NMR tube and placed with connecting tubing in a 14.1 T magnet at 37 C.\n(§2) Following dissolution in 5 ml phosphate buffer (40 mM pH 7.3) with addition of 2.5 μl NaOH to neutralize the pyruvic acid 2 ml of the substrate mixture was injected into 10 million cells in suspension. A series of 20 degree pulses every 2 s (56 scans in total) was acquired. The acquisition was started just before injection of the hyperpolarized substrate. Data are presented as metabolite signals as a function of time or as area under the curve of the metabolite signals."}, "[2]": {"tested_on": "Human prostate cancer cells (PC-3)", "experiment": "Carboxyl esterase CE-2 activity by in cell DNP conversion in PC-3 cells, co-polarized with 1-13C-pyruvate", "type": "cell-based", "details": "for AUC (arb. Units), area under the metabolic curve: 10 million cells, approx. 3.5 mM of each substrate, 37 C", "experimental": "as §1\n(§3) Human cancer cells (PC-3) were grown in RPMI+10% FBS and antibiotics. Following trypsin harvesting 10 million cells were redissolved in 500 μl phosphate buffer (PBS) and transferred to a 10 mm NMR tube and placed with connecting tubing in a 14.1 T magnet at 37° C.\nas §2"}, "[3]": {"experiment": "Liquid-state 13C-NMR after dissolution of hyperpolarized sample (T1, polarization, hydrolysis)", "type": "physicochemical", "details": "for T1, 37 C. 14.1 T: 13C longitudinal relaxation time, in s (unit assumed)", "experimental": "C) The sample was dissolved in 5 ml phosphate buffer (40 mM, pH 7.3)."}, "[4]": {"experiment": "DNP hyperpolarization in the solid state", "type": "physicochemical", "details": "DNP at 1.2 K, 3.35 T, microwave 93.900 GHz", "experimental": "A) Finland radical, carboxylic acid form (0.7 mg, 0.67 μmol) was dissolved in 1-^13C-1,1-Bis(acetoxy(methyl-d2))-2,2′-d4-cyclopropane (45 μl, 50.7 mg, 0.27 mmol). To the solution was added a DMSO solution of the gadolinium complex ([alfa1,alfa4,alfa7-tris[(phenylmethoxy)methyl]-1,4,7,10-tetraazacyclododecane-1,4,7,10-tetraacetato(4-)]gadolinate(1-)]hydrogen) (0.75 mg of a 100 μmol/g solution). The concentration of radical and gadolinium were 15 mM and 1.6 mM respectively.\nB) 30 μmol of a 1-^13C-1,1-Bis(acetoxy(methyl-d2))-2,2′-d4-cyclopropane sample made following the description in example 2.A was hyperpolarized. The composition was hyperpolarised under DNP conditions at 1.2 K in a 3.35 T magnetic field under irradiation with microwave (93.900 GHz). The polarization build-up constant was 750 s. The solid-state polarization was approx. 15%."}, "[5]": {"tested_on": "prostate of healthy Copenhagen rats", "experiment": "DNP-MRI conversion in the healthy prostate of living rats", "type": "in vivo, rat", "details": "intravenous, about 0.4 mmol/kg, n=2 rats", "experimental": "DNP-MRI experiment has been performed on 2 healthy Copenhagen rats, 9 weeks old, with average weight of 180 g.\n0.24 mmol of a 1-^13C-1,1-Bis(acetoxy(methyl-d2))-2,2′-d4-cyclopropane sample prepared following the description in Example 2A was hyperpolarized according to the conditions reported in example 2.B. The solid sample was then dissolved in 5 ml TRIS buffer (100 mM, pH 7.7) to obtain a hyperpolarized solution with 48 mM substrate concentration and a pH of 7.\n2.8 ml of the dissolved hyperpolarized 1-^13C-1,1-Bis(acetoxy(methyl-d2))-2,2′-d4-cyclopropane solution was injected intravenously at an injection rate of about 0.25 mL/s through a catheter placed in the tail vein of the animal, resulting in a total administered close of about 0.4 mmol/kg. A time series of 64 NMR spectra separated by 3 s and generated by 10° radiofrequency pulses was acquired starting from 15 s before injection of the hyperpolarized substrate. In order to follow the whole metabolic fate of the molecules and the decay of the hyperpolarized signal. The ^13C MR signal was collected by a 20 mm surface coil placed around the prostate. Spatial localization of the signal has been achieved by combining the limited sensitivity volume of the receiving coil with a slice selective spectroscopic sequence including a single gradient kept on only during the excitation period."}, "[6]": {"tested_on": "Human prostate cancer cells (PC-3) in comparison to healthy human prostate cells (PNT-1A)", "experiment": "In cell DNP conversion in PC-3 cells compared with healthy PNT-1A cells", "type": "cell-based", "details": "10 million cells, approx. 3.5 mM substrate", "experimental": "The experiments were performed with a polarization of 1-^13C-1,1-Bis(acetoxy(methyl-d2))-2,2′-d4-cyclopropane (30 μmol) resulting in a concentration of approx. 3.5 mM of this substrate in the experiments. The DNP preparation of 1-^13C-1,1-Bis(acetoxy(methyl-d2))-2,2′-d4-cyclopropane was performed as described in example 2.\nas §3, with “Human prostate” for “Human”, “(PC-3) or immortalized human prostate healthy cells” for “(PC-3)”\nas §2, with “7.3),” for “7.3) with addition of 2.5 μl NaOH to neutralize the pyruvic acid”"}},
  "data": [
    {"molecule": "[2H]C([2H])(O)[13C]1(C([2H])([2H])OC(C)=O)C([2H])([2H])C1([2H])[2H]", "note": "[1-^13C-1-(acetoxy(methyl-d2))-1-(hydroxy(methyl-d2))-2,2′-d4-cyclopropane]", "values": [
      {"measurement": "AUC of metabolite relative to that of 1-13C-lactate", "setting": "[1]", "result": "~30", "unit": "times"},
      {"measurement": "AUC (arb. Units), area under the metabolic curve", "setting": "[1]", "result": 43480, "unit": "arb. Units"},
      {"measurement": "AUC of metabolite relative to that of 1-13C-lactate", "setting": "[2]", "result": "~6", "unit": "times"},
      {"measurement": "AUC (arb. Units), area under the metabolic curve", "setting": "[2]", "result": 20550, "unit": "arb. Units"}
    ]},
    {"molecule": "N[C@@H](CC[13C](N)=O)C(=O)O", "note": "[5-13C-glutamine]", "values": [
      {"measurement": "T1, 37 C. 14.1 T", "setting": "[3]", "result": "22 ± 2"}
    ]},
    {"molecule": "[2H]C([2H])(O)[13C]1(C([2H])([2H])O)C([2H])([2H])C1([2H])[2H]", "note": "[1-^13C-1,1-(dihydroxy(methyl-d2))-2,2′-d4-cyclopropane]", "values": [
      {"measurement": "AUC (arb. Units), area under the metabolic curve", "setting": "[1]", "result": 1559, "unit": "arb. Units"}
    ]},
    {"molecule": "C[C@H](N)[13C](=O)O", "note": "[1-13C-alanine]", "values": [
      {"measurement": "T1, 37 C. 14.1 T", "setting": "[3]", "result": "31 ± 2"}
    ]},
    {"molecule": "C[13C](=O)O", "note": "[1-13C-acetate]", "values": [
      {"measurement": "T1, 37 C. 14.1 T", "setting": "[3]", "result": "50 ± 3"}
    ]},
    {"molecule": "[2H]C([2H])(O)[13C]([2H])([2H])[N+](C)(C)C", "note": "[2-13C-1,1,2,2-d4-choline]", "values": [
      {"measurement": "T1, 37 C. 14.1 T", "setting": "[3]", "result": "43 ± 4"}
    ]},
    {"molecule": "C[C@H](O)[13C](=O)O", "note": "[1-13C-lactate, reference compound]", "values": [
      {"measurement": "AUC (arb. Units), area under the metabolic curve", "setting": "[1]", "result": 282, "unit": "arb. Units"},
      {"measurement": "AUC (arb. Units), area under the metabolic curve", "setting": "[2]", "result": 3766, "unit": "arb. Units"},
      {"measurement": "T1, 37 C. 14.1 T", "setting": "[3]", "result": "40 ± 3"}
    ]},
    {"molecule": "[2H]C([2H])(OC(C)=O)[13C]1(C([2H])([2H])OC(C)=O)C([2H])([2H])C1([2H])[2H]", "note": "[1-^13C-1,1-Bis(acetoxy(methyl-d2))-2,2′-d4-cyclopropane]", "values": [
      {"measurement": "metabolic conversion relative to hyperpolarized 1-13C pyruvate, comparing the maximum metabolite signal", "setting": "[1]", "result": "approx. 15 times"},
      {"measurement": "polarization build-up constant", "setting": "[4]", "result": 750, "unit": "s"},
      {"measurement": "solid-state polarization", "setting": "[4]", "result": "approx. 15%"},
      {"measurement": "uptake and metabolic conversion in rat prostate in vivo", "setting": "[5]", "result": "taken up by prostate cells and converted into its hyperpolarized metabolites"},
      {"measurement": "metabolic conversion relative to hyperpolarized 1-13C pyruvate, comparing the maximum metabolite signal", "setting": "[2]", "result": "more than 3 times"},
      {"measurement": "liquid state polarization", "setting": "[3]; 12 s after dissolution", "result": 13, "unit": "%"},
      {"measurement": "T1, 37 C. 14.1 T", "setting": "[3]", "result": "85 ± 4"},
      {"measurement": "liquid state T1", "setting": "[3]; 14.1 T and 37 C, phosphate buffer 40 mM pH 7.3", "result": "approx. 85 s"},
      {"measurement": "hydrolysis in the dissolution process", "setting": "[3]; dissolved in 5 ml phosphate buffer (40 mM, pH 7.3)", "result": "not hydrolysed"},
      {"measurement": "metabolic conversion in diseased cells (PC-3) relative to healthy cells (PNT-1A)", "setting": "[6]", "result": "approx. 6 times"}
    ]},
    {"molecule": "O[13CH2][13C@H]1O[13CH](O)[13C@H](O)[13C@@H](O)[13C@@H]1O", "note": "(some centres unmarked) [13C6-glucose]", "values": [
      {"measurement": "T1, 37 C. 14.1 T", "setting": "[3]", "result": "15 ± 2"}
    ]},
    {"molecule": "O=[13C](O)/C=C/[13C](=O)O", "note": "[1,4-13C2-Fumarate]", "values": [
      {"measurement": "T1, 37 C. 14.1 T", "setting": "[3]", "result": "35 ± 3"}
    ]},
    {"molecule": "CC(=O)[13C](=O)O", "note": "[1-13C-pyruvate]", "values": [
      {"measurement": "T1, 37 C. 14.1 T", "setting": "[3]", "result": "45 ± 4"}
    ]},
    {"molecule": "CC([13CH3])CC(=O)C(=O)O", "note": "(centres unmarked) [1-13C-2-ketoisocaproate]", "values": [
      {"measurement": "T1, 37 C. 14.1 T", "setting": "[3]", "result": "35 ± 4"}
    ]},
    {"molecule": "O=[13C](O)CC(O)[13C](=O)O", "note": "(centres unmarked) [1,4-13C2-malate]", "values": [
      {"measurement": "T1, 37 C. 14.1 T", "setting": "[3]", "result": "30 ± 3"}
    ]},
    {"molecule": "1,3-ethyl acetoacetate", "values": [
      {"measurement": "T1, 37 C. 14.1 T", "setting": "[3]", "result": "27 ± 2"}
    ]},
    {"molecule": "OC[C@H]1O[13CH](O)[C@H](O)[C@@H](O)[C@@H]1O", "note": "(some centres unmarked) [1-13C-glucose]", "values": [
      {"measurement": "T1, 37 C. 14.1 T", "setting": "[3]", "result": "20 ± 2"}
    ]}
  ]
}
